Assay results published in US12570683B2, “Polymorphic form of reduced beta-nicotinamide mononucleotide disodium salt, and preparation method therefor and use thereof” (EFFEPHARM (SHANGHAI) CO., LTD., priority 2022, dated 2026).

Columns and labels:
Format in all cases: physicochemical
[1] = Stability, placed openly in stability chamber at 4° C. and 75% RH; settings: open
[2] = Stability, placed openly in stability chamber at 25° C. and 65% RH; settings: open
[3] = Exposure in air at 2-8° C., relative humidity 70-80% (crystal form transformation by absorbing water); settings: RH 70-80%
Text: Moisture (KF) determination method: MC-2000 automatic micro-moisture tester from Min Measure Instrument and Equipment (Xiamen) Co., Ltd. and Karl Fischer reagent from Nanjing Chemical Reagent Co., Ltd.

[4] = 0 day, listed as amorphous solid, disodium salt
[5] = 1 day, listed as amorphous solid, disodium salt

NC(=O)C1=CN([C@@H]2O[C@H](COP(=O)([O-])[O-])[C@@H](O)[C@H]2O)C=CC1.[Na+].[Na+] [Amorphous Solids, reduced β-nicotinamide mononucleotide disodium salt]
NMNH disodium salt purity (HPLC, % area) ([1]; 0 day, disodium salt): 99.30 % area
NMNH disodium salt purity (HPLC, % area) [1, 4]: 99.30 % area
NMNH disodium salt purity (HPLC, % area) ([1]; 5 day, disodium salt): 99.26 % area
NMNH disodium salt purity (HPLC, % area) ([1]; 5 day, listed as amorphous solid, disodium salt): 99.26 % area
Appearance of solid ([1]; 5 days): the powder solid absorbed water and became viscous to form a mass
NMNH disodium salt purity (HPLC, % area) ([1]; 18 day, disodium salt): 99.17 % area
NMNH disodium salt purity (HPLC, % area) ([1]; 18 day, listed as amorphous solid, disodium salt): 99.17 % area
Appearance of solid ([1]; 18 days, disodium salt): the color became darker
Appearance of solid ([2]; 0 day): (powders)
NMNH disodium salt purity (HPLC, % area) ([2]; 0 day, disodium salt): 99.30 % area
NMNH disodium salt purity (HPLC, % area) [2, 4]: 99.30 % area
Appearance of solid ([2]; 1 day, disodium salt): (oil)
NMNH disodium salt purity (HPLC, % area) ([2]; 1 day, disodium salt): 99.02 % area
Appearance of solid [2, 5]: the powder absorbed water and turned into an oil
NMNH disodium salt purity (HPLC, % area) [2, 5]: 99.02 % area

NC(=O)C1=CN([C@@H]2O[C@H](COP(=O)([O-])[O-])[C@@H](O)[C@H]2O)C=CC1.[Na+].[Na+] [Crystal form A, reduced β-nicotinamide mononucleotide disodium salt]
NMNH disodium salt purity (HPLC, % area) ([1]; 0 day, disodium salt): 99.33 % area
NMNH disodium salt purity (HPLC, % area) ([1]; 5 day, disodium salt): 99.35 % area
NMNH disodium salt purity (HPLC, % area) ([1]; 18 day, disodium salt): 99.33 % area
NMNH disodium salt purity (HPLC, % area) ([1]; 18 day, listed as crystal form A, disodium salt): 99.33 % area
Appearance of solid ([1]; 18 days, disodium salt): still a crystal powder
NMNH disodium salt purity (HPLC, % area) ([2]; 0 day, disodium salt): 99.33 % area
NMNH disodium salt purity (HPLC, % area) ([2]; 0 day, listed as crystal form A, disodium salt): 99.33 % area
NMNH disodium salt purity (HPLC, % area) ([2]; 1 day, disodium salt): 99.27 % area
NMNH disodium salt purity (HPLC, % area) ([2]; 5 day): 99.01 % area
Appearance of solid ([2]; 5 days): still a crystal powder

NC(=O)C1=CN([C@@H]2O[C@H](COP(=O)([O-])[O-])[C@@H](O)[C@H]2O)C=CC1.[Na+].[Na+] [crystal form B, reduced β-nicotinamide mononucleotide disodium salt]
Moisture (KF) after exposure ([3]; after 30 days): 29%
Resulting solid crystal form ([3]; after 30 days): crystal form A

NC(=O)C1=CN([C@@H]2O[C@H](COP(=O)([O-])[O-])[C@@H](O)[C@H]2O)C=CC1.[Na+].[Na+] [crystal form C, reduced β-nicotinamide mononucleotide disodium salt]
Moisture (KF) after exposure ([3]; after 24 hours): 24%
Resulting solid crystal form ([3]; after 24 hours): crystal form A
